In ChEMBL document CHEMBL1155474, “8-THP-DHI analogs as potent Type I dual TIE-2/VEGF-R2 receptor tyrosine kinase inhibitors” (Bioorg Med Chem Lett, 2010):
Activity calls are given as the source filed them. No cut-off for these calls is given here.

Tests used:
[1] = Metabolic stability in rat liver S9 fraction; format: ADME, subcellular
[2] = system: SVR; experiment: Antitumor activity against mouse SVR cells xenografted in nude mouse assessed as partial tumor regressions at 1 mg/kg, po bid administered after 4 days tumor implantation for 10 days; format: functional
[3] = system: SVR; experiment: Antitumor activity against mouse SVR cells xenografted in nude mouse assessed as tumor inhibition at 1 mg/kg, po bid administered after 4 days tumor implantation for 10 days; format: functional
[4] = molecular target: Tyrosine-protein kinase Yes (Homo sapiens) (UniProt P07947); experiment: Inhibition of YES at 3 uM
[5] = Plasma concentration in mouse SVR cells xenografted in nude mouse at 1 mg/kg, po bid administered after 4 days tumor implantation for 10 days measured after 2 hrs post dose; format: ADME, organism-based; design: dose 1 mg/kg, route oral
[6] = molecular target: T1, Serine/threonine-protein kinase Chk1 (Homo sapiens) (UniProt O14757); experiment: Inhibition of CHK1 at 3 uM
T1 sequence (whole entry): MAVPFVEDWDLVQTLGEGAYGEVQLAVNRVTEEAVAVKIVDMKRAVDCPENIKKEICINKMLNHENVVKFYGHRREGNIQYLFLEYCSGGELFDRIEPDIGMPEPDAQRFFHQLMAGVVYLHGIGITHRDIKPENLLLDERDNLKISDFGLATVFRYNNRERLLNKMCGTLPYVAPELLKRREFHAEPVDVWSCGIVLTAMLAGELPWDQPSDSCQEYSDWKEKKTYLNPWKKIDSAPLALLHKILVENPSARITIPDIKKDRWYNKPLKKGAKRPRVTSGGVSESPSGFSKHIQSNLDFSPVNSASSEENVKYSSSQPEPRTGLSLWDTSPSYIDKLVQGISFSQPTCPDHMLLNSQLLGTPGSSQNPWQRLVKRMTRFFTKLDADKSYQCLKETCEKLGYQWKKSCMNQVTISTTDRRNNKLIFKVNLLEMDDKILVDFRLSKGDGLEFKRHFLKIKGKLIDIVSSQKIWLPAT

[7] = system: HUVEC; experiment: Cytotoxicity against HUVEC; format: cell-based; conditions: human
[8] = molecular target: Angiopoietin-1 receptor (Homo sapiens, UniProt Q02763); experiment: Inhibition of human recombinant TIE-2 by time resolved fluorescence measurements
[9] = molecular target: Vascular endothelial growth factor receptor 1 (Homo sapiens, UniProt P17948); experiment: Inhibition of VEGFR1 at 3 uM
[10] = AUC (0 to infinity) in rat at 1 mg/kg, iv; format: ADME, organism-based; design: time infinity, dose 1 mg/kg, route intravenous; conditions: plasma
[11] = molecular target: Fibroblast growth factor receptor 3 (Homo sapiens) (UniProt P22607); experiment: Inhibition of FGFR3 at 3 uM
[12] = molecular target: Dual specificity mitogen-activated protein kinase kinase 1 (Homo sapiens) (UniProt Q02750); experiment: Inhibition of MEK1 at 3 uM
[13] = molecular target: T2, Vascular endothelial growth factor receptor 2 (Homo sapiens, UniProt P35968); experiment: Inhibition of human recombinant VEGFR2 by time resolved fluorescence measurements
[14] = Terminal half life in rat at 10 mg/kg, po; format: ADME, organism-based; design: dose 10 mg/kg, route oral; conditions: in vivo, read-out: beta t1/2 (converted)
[15] = system: SVR; experiment: Antitumor activity against mouse SVR cells xenografted in nude mouse assessed as complete tumor regressions at 1 mg/kg, po bid administered after 4 days tumor implantation for 10 days; format: functional
[16] = molecular target: Platelet-derived growth factor receptor beta (Homo sapiens) (UniProt P09619); experiment: Inhibition of PDGFRbeta at 3 uM
[17] = molecular target: Glycogen synthase kinase-3 beta (Homo sapiens) (UniProt P49841); experiment: Inhibition of GSK3-beta at 3 uM
[18] = Inhibition of JNK at 3 uM
[19] = molecular target: Insulin receptor (Homo sapiens, UniProt P06213); experiment: Inhibition of insulin receptor
[20] = molecular target: Tyrosine-protein kinase Fyn (Homo sapiens) (UniProt P06241); experiment: Inhibition of Fyn at 3 uM
[21] = AUC (0 to infinity) in rat at 10 mg/kg, po; format: ADME, organism-based; design: time infinity, dose 10 mg/kg, route oral; conditions: plasma
[22] = Clearance in rat at 1 mg/kg, iv; format: ADME, organism-based; design: dose 1 mg/kg, route intravenous; conditions: in vivo
[23] = Inhibition of MAPK at 3 uM
[24] = Oral bioavailability in rat at 10 mg/kg; format: ADME, organism-based; conditions: in vivo
[25] = system: Aorta; experiment: Ex vivo antiangiogenic activity in rat aortic ring assessed as inhibition of VEGF-stimulated microvessel growth; format: functional, tissue-based
[26] = Volume of distribution in rat at 1 mg/kg, iv; format: ADME, organism-based; design: dose 1 mg/kg, route intravenous; conditions: in vivo
[27] = molecular target: T2, Vascular endothelial growth factor receptor 2; experiment: Inhibition of VEGF-stimulated VEGFR2 autophosphorylation in HUVEC
[28] = molecular target: Tyrosine-protein kinase Lck (Homo sapiens) (UniProt P06239); experiment: Inhibition of LCK at 3 uM
[29] = Terminal half life in rat at 1 mg/kg, iv; format: ADME, organism-based; design: dose 1 mg/kg, route intravenous; conditions: in vivo, read-out: beta t1/2 (converted)
[30] = Inhibition of PKC at 3 uM
[31] = Cmax in rat at 10 mg/kg, po; format: ADME, organism-based; design: dose 10 mg/kg, route oral; conditions: in vivo
[32] = Plasma concentration in mouse SVR cells xenografted in nude mouse at 3 mg/kg, po bid administered after 4 days tumor implantation for 10 days measured after 2 hrs post dose; format: ADME, organism-based; design: dose 3 mg/kg, route oral
[33] = molecular target: Tyrosine-protein kinase Lyn (Homo sapiens) (UniProt P07948); experiment: Inhibition of Lyn at 3 uM
[34] = system: SVR; experiment: Antitumor activity against mouse SVR cells xenografted in nude mouse assessed as tumor inhibition at 3 mg/kg, po bid administered after 4 days tumor implantation for 10 days; format: functional
[35] = Inhibition of cytochrome P450
[36] = molecular target: Tyrosine-protein kinase Blk (Homo sapiens) (UniProt P51451); experiment: Inhibition of Blk at 3 uM
[37] = molecular target: Epidermal growth factor receptor (Homo sapiens, UniProt P00533); experiment: Inhibition of EGFR
[38] = molecular target: Vascular endothelial growth factor receptor 3 (Homo sapiens, UniProt P35916); experiment: Inhibition of VEGFR3 at 3 uM
[39] = system: HUVEC; experiment: Inhibition of capillary tube formation in HUVEC; format: functional, cell-based; conditions: Homo sapiens
[40] = Inhibition of CDK at 3 uM
[41] = system: SVR; experiment: Antitumor activity against mouse SVR cells xenografted in nude mouse assessed as tumor regressions at 3 mg/kg, po bid administered after 4 days tumor implantation for 10 days; format: functional

T2 sequence (P35968 whole entry): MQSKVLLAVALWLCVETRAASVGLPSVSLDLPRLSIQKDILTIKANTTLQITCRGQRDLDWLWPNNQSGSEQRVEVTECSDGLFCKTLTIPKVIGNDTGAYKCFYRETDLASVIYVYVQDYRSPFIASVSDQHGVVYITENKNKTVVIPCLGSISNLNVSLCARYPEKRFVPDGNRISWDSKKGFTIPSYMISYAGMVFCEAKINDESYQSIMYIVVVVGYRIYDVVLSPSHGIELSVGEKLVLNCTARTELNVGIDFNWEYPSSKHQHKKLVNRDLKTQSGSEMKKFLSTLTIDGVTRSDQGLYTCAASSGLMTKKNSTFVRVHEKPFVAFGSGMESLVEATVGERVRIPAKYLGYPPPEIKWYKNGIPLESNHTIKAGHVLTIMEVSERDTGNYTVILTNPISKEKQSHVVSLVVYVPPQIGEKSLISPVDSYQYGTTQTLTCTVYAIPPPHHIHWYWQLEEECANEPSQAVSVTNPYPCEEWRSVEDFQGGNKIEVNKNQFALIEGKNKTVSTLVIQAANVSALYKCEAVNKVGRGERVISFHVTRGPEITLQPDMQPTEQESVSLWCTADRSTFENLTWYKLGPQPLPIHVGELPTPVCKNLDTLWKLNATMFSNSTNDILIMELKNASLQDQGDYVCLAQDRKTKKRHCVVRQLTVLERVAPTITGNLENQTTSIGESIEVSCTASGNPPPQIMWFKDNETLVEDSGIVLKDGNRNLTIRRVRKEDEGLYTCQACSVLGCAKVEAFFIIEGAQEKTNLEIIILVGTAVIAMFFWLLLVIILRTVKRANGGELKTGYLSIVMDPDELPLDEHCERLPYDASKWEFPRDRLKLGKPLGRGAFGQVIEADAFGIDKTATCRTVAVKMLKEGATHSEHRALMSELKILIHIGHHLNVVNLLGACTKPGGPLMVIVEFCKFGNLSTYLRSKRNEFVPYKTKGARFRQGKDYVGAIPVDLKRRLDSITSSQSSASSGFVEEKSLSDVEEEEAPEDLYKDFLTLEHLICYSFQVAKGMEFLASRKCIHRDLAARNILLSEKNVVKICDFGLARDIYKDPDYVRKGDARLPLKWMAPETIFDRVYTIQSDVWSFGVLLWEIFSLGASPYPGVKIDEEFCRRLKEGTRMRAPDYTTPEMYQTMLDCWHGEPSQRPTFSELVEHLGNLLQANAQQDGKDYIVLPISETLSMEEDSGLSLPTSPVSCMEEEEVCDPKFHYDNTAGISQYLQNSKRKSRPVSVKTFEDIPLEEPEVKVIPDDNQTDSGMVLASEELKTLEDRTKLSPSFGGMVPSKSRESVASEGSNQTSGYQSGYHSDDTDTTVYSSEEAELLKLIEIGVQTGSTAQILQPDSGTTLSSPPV
Sequence of Tyrosine-protein kinase Yes (Homo sapiens) (P07947 2-543 limits assumed): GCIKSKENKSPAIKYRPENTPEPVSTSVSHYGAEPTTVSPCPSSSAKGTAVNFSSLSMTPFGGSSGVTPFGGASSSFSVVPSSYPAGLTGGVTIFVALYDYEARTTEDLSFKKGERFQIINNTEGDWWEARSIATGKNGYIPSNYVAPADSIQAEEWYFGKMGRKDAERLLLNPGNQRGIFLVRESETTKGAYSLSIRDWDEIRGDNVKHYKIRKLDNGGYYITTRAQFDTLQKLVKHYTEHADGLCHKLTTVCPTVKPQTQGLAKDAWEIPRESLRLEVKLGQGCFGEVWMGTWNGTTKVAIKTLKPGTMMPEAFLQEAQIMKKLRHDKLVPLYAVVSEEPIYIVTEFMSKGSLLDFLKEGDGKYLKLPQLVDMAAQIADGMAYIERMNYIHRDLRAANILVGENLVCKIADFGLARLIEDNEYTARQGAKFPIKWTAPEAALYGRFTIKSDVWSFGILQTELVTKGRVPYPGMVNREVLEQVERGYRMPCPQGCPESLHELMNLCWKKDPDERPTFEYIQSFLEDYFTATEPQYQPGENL
Sequence of Tyrosine-protein kinase Blk (Homo sapiens) (P51451 2-505 limits assumed): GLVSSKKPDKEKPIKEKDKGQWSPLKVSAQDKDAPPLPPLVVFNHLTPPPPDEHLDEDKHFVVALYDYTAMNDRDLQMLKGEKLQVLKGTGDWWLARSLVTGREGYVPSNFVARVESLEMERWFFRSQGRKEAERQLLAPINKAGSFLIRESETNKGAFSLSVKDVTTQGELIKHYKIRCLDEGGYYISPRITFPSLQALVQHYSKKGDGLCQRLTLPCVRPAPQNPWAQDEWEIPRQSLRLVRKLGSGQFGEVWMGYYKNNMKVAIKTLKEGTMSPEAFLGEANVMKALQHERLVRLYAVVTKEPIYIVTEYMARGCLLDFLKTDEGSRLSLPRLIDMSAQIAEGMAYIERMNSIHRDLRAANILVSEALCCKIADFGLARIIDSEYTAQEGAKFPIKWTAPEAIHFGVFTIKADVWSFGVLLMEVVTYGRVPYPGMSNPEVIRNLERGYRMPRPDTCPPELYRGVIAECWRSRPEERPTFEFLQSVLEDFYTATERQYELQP
Sequence of Platelet-derived growth factor receptor beta (Homo sapiens) (P09619 whole entry): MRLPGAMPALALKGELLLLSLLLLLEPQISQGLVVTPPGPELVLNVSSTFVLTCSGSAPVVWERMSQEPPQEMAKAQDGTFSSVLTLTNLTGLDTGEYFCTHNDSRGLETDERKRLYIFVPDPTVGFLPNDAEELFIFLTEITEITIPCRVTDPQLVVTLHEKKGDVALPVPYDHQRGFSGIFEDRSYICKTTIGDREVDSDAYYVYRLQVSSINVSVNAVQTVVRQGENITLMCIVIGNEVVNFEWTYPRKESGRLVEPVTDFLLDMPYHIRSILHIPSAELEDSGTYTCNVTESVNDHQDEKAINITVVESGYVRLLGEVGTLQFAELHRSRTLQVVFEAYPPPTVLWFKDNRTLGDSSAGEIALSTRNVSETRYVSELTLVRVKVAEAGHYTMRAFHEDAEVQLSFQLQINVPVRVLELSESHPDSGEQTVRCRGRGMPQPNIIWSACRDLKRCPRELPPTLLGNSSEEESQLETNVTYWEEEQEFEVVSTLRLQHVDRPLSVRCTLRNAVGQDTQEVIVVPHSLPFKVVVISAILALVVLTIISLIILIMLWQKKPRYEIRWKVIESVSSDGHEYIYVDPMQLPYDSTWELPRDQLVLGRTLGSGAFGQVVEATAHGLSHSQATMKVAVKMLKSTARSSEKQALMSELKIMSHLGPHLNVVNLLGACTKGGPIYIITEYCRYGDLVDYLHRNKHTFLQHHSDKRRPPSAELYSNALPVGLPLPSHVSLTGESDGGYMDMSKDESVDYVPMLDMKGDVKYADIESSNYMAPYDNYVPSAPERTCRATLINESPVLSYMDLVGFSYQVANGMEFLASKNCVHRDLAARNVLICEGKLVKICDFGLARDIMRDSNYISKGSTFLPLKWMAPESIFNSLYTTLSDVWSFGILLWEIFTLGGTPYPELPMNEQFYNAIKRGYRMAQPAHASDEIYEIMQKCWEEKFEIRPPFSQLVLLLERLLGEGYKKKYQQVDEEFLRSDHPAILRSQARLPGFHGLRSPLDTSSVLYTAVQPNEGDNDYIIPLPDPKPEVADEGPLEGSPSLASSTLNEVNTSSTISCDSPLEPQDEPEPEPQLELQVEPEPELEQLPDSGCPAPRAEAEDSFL
Sequence of Insulin receptor (P06213 28-758 limits assumed): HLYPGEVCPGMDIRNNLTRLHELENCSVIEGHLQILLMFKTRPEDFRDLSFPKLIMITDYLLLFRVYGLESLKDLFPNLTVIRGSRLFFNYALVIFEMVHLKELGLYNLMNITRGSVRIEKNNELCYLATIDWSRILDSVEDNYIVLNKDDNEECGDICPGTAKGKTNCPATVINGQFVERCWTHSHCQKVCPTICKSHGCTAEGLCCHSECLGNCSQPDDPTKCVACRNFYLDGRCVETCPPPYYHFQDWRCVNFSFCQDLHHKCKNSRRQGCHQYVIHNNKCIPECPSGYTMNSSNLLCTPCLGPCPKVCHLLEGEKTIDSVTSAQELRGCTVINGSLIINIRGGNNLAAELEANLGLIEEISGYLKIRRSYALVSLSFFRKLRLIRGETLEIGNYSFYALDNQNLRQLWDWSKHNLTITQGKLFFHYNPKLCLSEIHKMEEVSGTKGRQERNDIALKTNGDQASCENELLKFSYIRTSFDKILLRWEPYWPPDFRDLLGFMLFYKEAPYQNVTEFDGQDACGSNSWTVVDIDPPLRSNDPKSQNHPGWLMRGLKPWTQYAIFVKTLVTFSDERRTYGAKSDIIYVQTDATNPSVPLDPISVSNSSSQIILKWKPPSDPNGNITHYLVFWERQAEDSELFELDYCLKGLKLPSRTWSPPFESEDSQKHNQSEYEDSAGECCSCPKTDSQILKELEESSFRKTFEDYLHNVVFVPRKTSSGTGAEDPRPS
Sequence of Insulin receptor (P06213 763-1382 limits assumed): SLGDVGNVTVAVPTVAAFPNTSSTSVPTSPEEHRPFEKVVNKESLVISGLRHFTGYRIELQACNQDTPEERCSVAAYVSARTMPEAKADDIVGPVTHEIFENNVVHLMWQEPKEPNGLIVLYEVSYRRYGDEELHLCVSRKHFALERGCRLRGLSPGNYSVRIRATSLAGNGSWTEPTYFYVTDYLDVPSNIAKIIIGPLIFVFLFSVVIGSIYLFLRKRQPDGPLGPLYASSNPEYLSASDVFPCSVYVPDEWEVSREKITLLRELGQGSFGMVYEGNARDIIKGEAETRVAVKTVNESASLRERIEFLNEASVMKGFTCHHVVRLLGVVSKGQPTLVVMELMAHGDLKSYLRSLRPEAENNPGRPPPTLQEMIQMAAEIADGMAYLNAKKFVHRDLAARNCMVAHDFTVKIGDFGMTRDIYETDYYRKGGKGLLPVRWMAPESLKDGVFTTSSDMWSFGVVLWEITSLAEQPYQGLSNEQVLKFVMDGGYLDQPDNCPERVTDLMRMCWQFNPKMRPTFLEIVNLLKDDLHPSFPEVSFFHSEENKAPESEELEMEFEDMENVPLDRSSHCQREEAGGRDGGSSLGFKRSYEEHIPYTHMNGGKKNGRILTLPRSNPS

## CC(C)Cn1c2ccc(C3CCCCO3)cc2c2c3c(c4c(c21)CCc1nn(C)cc1-4)C(=O)NC3 (racemic)
[1]
  Stability: Stable
[2]
  Activity: 10%
[3]
  inhibition in vivo at 1 mg/kg: 59%
[4]
  inhibition: > 90%
[5]
  concentration at 2 h: 321 nM
[6]
  inhibition: inactive
[7]
  Activity: Non-toxic
[8]
  IC50: 3 nM
[9]
  IC50: 16 nM
[10]
  AUC(0-inf): 862 ng·h/mL
[11]
  inhibition: 100%
[12]
  inhibition: inactive
[13]
  IC50: 11 nM
[14]
  half-life: 3.9 h
[15]
  Activity: 10%
[16]
  inhibition: > 90%
[17]
  inhibition: inactive
[18]
  inhibition: inactive
[19]
  IC50: > 1000 nM
[20]
  inhibition: > 90%
[21]
  AUC(0-inf): 1260 ng·h/mL
[22]
  clearance: 20 mL/min/kg
[23]
  inhibition: inactive
[24]
  bioavailability: 15%
[25]
  EC50: 0.9 nM
[26]
  Vd: 3.2 L/kg
[27]
  IC50: 10 nM
[28]
  inhibition: > 90%
[29]
  half-life: 1.9 h
[30]
  inhibition: inactive
[31]
  Cmax: 154 ng/mL
[32]
  concentration at 2 h: 950 nM
[33]
  inhibition: > 90%
[34]
  inhibition in vivo at 3 mg/kg: 61%
[35]
  INH: > 10 µM
[36]
  inhibition: > 90%
[37]
  IC50: > 1000 nM
[38]
  IC50: 9 nM
[39]
  EC50: 2 nM
[40]
  inhibition: inactive
[41]
  Activity: 10%

## CCCCn1c2ccc(C3CCCCO3)cc2c2c3c(c4c(c21)CCc1nn(C)cc1-4)C(=O)NC3 (racemic)
[1]
  Stability: Stable
[3]
  inhibition in vivo at 1 mg/kg: 52%
[4]
  inhibition: > 90%
[5]
  concentration at 2 h: 158 nM
[6]
  inhibition: inactive
[7]
  Activity: Non-toxic
[8]
  IC50: 10 nM
[9]
  IC50: 28 nM
[10]
  AUC(0-inf): 1160 ng·h/mL
[11]
  inhibition: 100%
[12]
  inhibition: inactive
[13]
  IC50: 24 nM
[14]
  half-life: 2.8 h
[16]
  inhibition: > 90%
[17]
  inhibition: inactive
[18]
  inhibition: inactive
[19]
  IC50: > 1000 nM
[20]
  inhibition: > 90%
[21]
  AUC(0-inf): 1890 ng·h/mL
[22]
  clearance: 15 mL/min/kg
[23]
  inhibition: inactive
[24]
  bioavailability: 16%
[25]
  EC50: 1.2 nM
[26]
  Vd: 2 L/kg
[27]
  IC50: 10 nM
[28]
  inhibition: > 90%
[29]
  half-life: 1.5 h
[30]
  inhibition: inactive
[31]
  Cmax: 255 ng/mL
[32]
  concentration at 2 h: 900 nM
[33]
  inhibition: > 90%
[34]
  inhibition in vivo at 3 mg/kg: 63%
[35]
  INH: > 10 µM
[36]
  inhibition: > 90%
[37]
  IC50: > 1000 nM
[38]
  IC50: 5 nM
[39]
  EC50: 0.6 nM
[40]
  inhibition: inactive
[41]
  Activity: 10%
